Measurements from patent US10219513B2, “Safening 4-amino-3-chloro-6-(4-chloro-2-fluoro-3-methoxyphenyl)-5-fluoropyridine-2-carboxylic acid compositions in Brassica species and methods of use thereof” (Dow AgroSciences LLC, priority 2016, dated 2019).

Key:
[1] = test system: Brassica napus (all varieties of canola and oilseed rape, BRSNN); assay: Greenhouse postemergence application, visual injury after 20-22 d, BRSNN; settings: for % Visual Injury Obs / Obs % visual injury: BRSNN
Experimental: (§1) Seeds of the desired test plant species were planted in Sun Gro MetroMix® 306 planting mixture, which typically has a pH of 6.0 to 6.8 and an organic matter content of about 30 percent, in plastic pots with a surface area of 103.2 square centimeters (cm^2). […] The plants were grown for 7-36 days (d) in a greenhouse with an approximate 14-hour (h) photoperiod which was maintained at about 23° C. during the day and 22° C. during the night. Nutrients and water were added on a regular basis and supplemental lighting was provided with overhead metal halide 1000-Watt lamps as necessary. The plants were employed for testing when they reached the second or third true leaf stage.
(§2) An aliquot of formulated benzyl 4-amino-3-chloro-6-(4-chloro-2-fluoro-3-methoxyphenyl)-5-fluoropyridine-2-carboxylate (florpyrauxifen-benzyl; 300 grams active ingredient per liter (g ai/L) suspension concentrate (SC)) was placed in a 25 mL glass vial and diluted in a volume of 1.25% (v/v) aqueous Agri-dex crop oil concentrated to obtain a stock solution. […] The concentrated stock solutions were diluted with an aqueous mixture of 1.25% v/v of aqueous Agri-dex crop oil concentrate to provide the appropriate application rates. Compound requirements are based upon a 12 milliliter (mL) application volume at a rate of 187 liters per hectare (L/ha). Stock solutions of the formulated materials were prepared following the same procedure. Spray solutions of the compound mixtures were prepared by adding the stock solutions to the appropriate amount of dilution solution to form a 12 mL spray solution. Formulated compounds were applied to the plant material with an overhead Mandel track sprayer equipped with 8002E nozzles calibrated to deliver 187 L/ha over an application area of 0.503 square meters (m^2) at a spray height of 18 inches (43 centimeters (cm)) above average plant canopy. Control plants were sprayed in the same manner with the solvent blank.
(§3) The treated plants and control plants were placed in a greenhouse as described above and watered by sub-irrigation to prevent wash-off of the test compounds. After 20-22 d, the condition of the test plants as compared with that of the control plants was determined visually and scored on a scale of 0 to 100 percent where 0 corresponds to no injury and 100 corresponds to complete kill. Colby's equation was used to determine the herbicidal effects expected from the mixtures.
(§4) Benzyl 4-amino-3-chloro-6-(4-chloro-2-fluoro-3-methoxyphenyl)-5-fluoropyridine-2-carboxylate (florpyrauxifen-benzyl, 300 g ai/L SC) was combined in two-, three-, and four-way mixtures with one or more of the following: clopyralid-olamine (as Lontrel™ 35A Herbicidal Concentrate), quinclorac (as Facet 75DF), isoxadifen-ethyl (100 g/L SC), cloquintocet-mexyl (120 g/L EC) or mefenpyr-diethyl (as mefenpyr-diethyl 15WP). The mixtures were applied to kale/Chinese kale (Brassica alboglabra, BRSAG), Juncea canola or brown mustard (Brassica juncea, BRSJU), rutabaga (Brassica napus var. napobrassica, BRSNA), all varieties of canola and oilseed rape (Brassica napus, BRSNN), Nexera™ canola (Brassica napus, BRSNN-NEX), winter oilseed rape (Brassica napus, BRSNW), Roundup Ready® canola (Brassica napus, RR-BRSNN), and turnip or Polish canola (Brassica rapa, BRSRR), and the phytotoxicity of the compositions was measured.
(§5) Colby's equation was used to determine the herbicidal effects expected from the mixtures evaluated in the described trials (Colby, S. R. Calculation of the synergistic and antagonistic response of herbicide combinations. Weeds 1967, 15, 20-22.).
(§6) The following equation was used to calculate the expected activity of mixtures containing two active ingredients, A and B: Expected=A+B−(A×B/100) • A=observed efficacy of active ingredient A at the same concentration as used in the mixture; • B=observed efficacy of active ingredient B at the same concentration as used in the mixture.

[2] = test system: Brassica alboglabra (kale/Chinese kale, BRSAG); assay: Greenhouse postemergence application, visual injury after 20-22 d, BRSAG; settings: for % Visual Injury Obs / Obs % visual injury: BRSAG
Experimental: as §1, §2, §3, §4, §5, §6

[3] = test system: Brassica napus (winter oilseed rape, BRSNW); assay: Greenhouse postemergence application, visual injury after 20-22 d, BRSNW; settings: for % Visual Injury Obs / Obs % visual injury: BRSNW
Experimental: as §1, §2, §3, §4, §5, §6

[4] = test system: Brassica rapa (turnip or Polish canola, BRSRR); assay: Greenhouse postemergence application, visual injury after 20-22 d, BRSRR; settings: for % Visual Injury Obs / Obs % visual injury: BRSRR
Experimental: as §1, §2, §3, §4, §5, §6

[5] = test system: Brassica napus (Roundup Ready canola, RR-BRSNN); assay: Greenhouse postemergence application, visual injury after 20-22 d, RR-BRSNN; settings: for % Visual Injury Obs / Obs % visual injury: RR-BRSNN
Experimental: as §1, §2, §3, §4, §5, §6

[6] = postemergence application, greenhouse, application rate (g ai/ha) varies

O=C(O)c1c(Cl)ccc2cc(Cl)cnc12 [Quinclorac, 3,7-dichloro-8-quinolinecarboxylic acid]
0%: % Visual Injury Obs ([1]; 50 g ai/ha) | % Visual Injury Obs ([1]; 100 g ai/ha) | % Visual Injury Obs ([1]; 200 g ai/ha) | Obs % visual injury ([1]; partner alone 50 g ai/ha) | Obs % visual injury ([1]; partner alone 100 g ai/ha) | Obs % visual injury ([1]; partner alone 200 g ai/ha) | % Visual Injury BRSNN Obs [1, 6] | % Visual Injury BRSNN Obs ([1]; quinclorac 50 g ai/ha alone) | % Visual Injury BRSNN Obs ([1]; quinclorac 100 g ai/ha alone) | % Visual Injury BRSNN Obs ([1]; quinclorac 200 g ai/ha alone) | % Visual Injury Obs ([2]; 50 g ai/ha) | % Visual Injury Obs ([2]; 100 g ai/ha) | % Visual Injury Obs ([2]; 200 g ai/ha) | Obs % visual injury ([2]; partner alone 50 g ai/ha) | Obs % visual injury ([2]; partner alone 100 g ai/ha) | Obs % visual injury ([2]; partner alone 200 g ai/ha) | % Visual Injury BRSAG Obs [2, 6] | % Visual Injury BRSAG Obs ([2]; quinclorac 50 g ai/ha alone) | % Visual Injury BRSAG Obs ([2]; quinclorac 100 g ai/ha alone) | % Visual Injury BRSAG Obs ([2]; quinclorac 200 g ai/ha alone) | % Visual Injury Obs ([3]; 50 g ai/ha) | % Visual Injury Obs ([3]; 100 g ai/ha) | % Visual Injury Obs ([3]; 200 g ai/ha) | Obs % visual injury ([3]; partner alone 50 g ai/ha) | Obs % visual injury ([3]; partner alone 100 g ai/ha) | Obs % visual injury ([3]; partner alone 200 g ai/ha) | % Visual Injury BRSNW Obs [3, 6] | % Visual Injury BRSNW Obs ([3]; quinclorac 50 g ai/ha alone) | % Visual Injury BRSNW Obs ([3]; quinclorac 100 g ai/ha alone) | % Visual Injury BRSNW Obs ([3]; quinclorac 200 g ai/ha alone) | % Visual Injury Obs ([4]; 50 g ai/ha) | % Visual Injury Obs ([4]; 100 g ai/ha) | % Visual Injury Obs ([4]; 200 g ai/ha) | Obs % visual injury ([4]; partner alone 50 g ai/ha) | Obs % visual injury ([4]; partner alone 100 g ai/ha) | Obs % visual injury ([4]; partner alone 200 g ai/ha) | % Visual Injury BRSRR Obs [4, 6] | % Visual Injury BRSRR Obs ([4]; quinclorac 50 g ai/ha alone) | % Visual Injury BRSRR Obs ([4]; quinclorac 100 g ai/ha alone) | % Visual Injury BRSRR Obs ([4]; quinclorac 200 g ai/ha alone) | % Visual Injury Obs ([5]; 50 g ai/ha) | % Visual Injury Obs ([5]; 100 g ai/ha) | % Visual Injury Obs ([5]; 200 g ai/ha) | Obs % visual injury ([5]; partner alone 50 g ai/ha) | Obs % visual injury ([5]; partner alone 100 g ai/ha) | Obs % visual injury ([5]; partner alone 200 g ai/ha) | % Visual Injury RR-BRSNN Obs [5, 6] | % Visual Injury RR-BRSNN Obs ([5]; quinclorac 50 g ai/ha alone) | % Visual Injury RR-BRSNN Obs ([5]; quinclorac 100 g ai/ha alone) | % Visual Injury RR-BRSNN Obs ([5]; quinclorac 200 g ai/ha alone)
